Test results reported in patent US6228836A, “Permucous preparation” (Mitsubishi-Tokyo Pharmaceuticals, Inc., priority 1997, dated 2001).

Set-up: species or system rats
Settings: rat, in vivo
Protocol: Eight-week-old female rats were used, with five per group. The rats were administered 100 μL/kg of the test sample into the nasal cavities once a day, for 7 continuous days. On the 8th day the nasal cavities were extracted, and after dividing them into 3 parts from the nasal cavity opening to the deep end of the nasal cavity, they were fixed with formalin to prepare specimens. After 10-14 days of fixing, a histopathological examination was made of the state of the mucosa, exudation and any bleeding.
Mild irritation was judged when abnormalities were found in the nasal mucosa at sections near the nasal cavity opening, and moderate to severe irritation was judged when the sections where abnormalities were found were further to the deep end. Moderate or greater irritation was also judged when degeneration, ablation, exudation or bleeding was found on the nasal mucosa epithelium at sections near the nasal cavity opening.
As controls there were used physiological saline and commercially available desmopressin (Kyowa Hakko Kogyo, KK.)

| SMILES | Nasal cavity mucosa irritation: Mild | Nasal cavity mucosa irritation: Moderate | Nasal cavity mucosa irritation: Normal | Nasal cavity mucosa irritation: Severe | Nasal mucosa irritation, histopathological finding / judgement (in words) |
| --- | --- | --- | --- | --- | --- |
| NC(=O)CC[C@@H]1NC(=O)[C@H](Cc2ccccc2)NC(=O)[C@H](Cc2ccc(O)cc2)NC(=O)CCSSC[C@@H](C(=O)N2CCC[C@H]2C(=O)N[C@H](CCCN=C(N)N)C(=O)NCC(N)=O)NC(=O)[C@H](CC(N)=O)NC1=O [Desmopressin, desmopressin] | 0 | 0 | 5 | 0 | No irritation |
| C[C@H](CCC(=O)O)[C@H]1CC[C@H]2[C@@H]3CC[C@@H]4C[C@H](O)CC[C@]4(C)[C@H]3C[C@H](O)[C@]12C [sodium deoxycholate] | – | – | – | – | irritating effect on the nasal cavity mucosa |
